Experimental findings from patent publication US20250092016A1, “COMPOUNDS AND COMPOSITIONS FOR THE TREATMENT OF CORONAVIRAL RELATED DISEASES” (priority 2021, published 2025) are described below.

Bounds are passed on as bounds.

The target of this assay is SARS-CoV-2 main protease (M^pro) (Severe acute respiratory syndrome coronavirus 2, UniProt P0DTD1). Put plainly: Rapid-Fire MS Biochemical Assay measuring Mpro activity (5 nM Mpro). The conditions noted are these: Table 1B, Mpro inhibition, 5 μM substrate peptide, 120 min, read-out: Rapid-Fire Assay IC50.
Regarding `N#C[C@@H]1CN(c2cncc(C(F)(F)F)c2)C(=O)N1c1cncc2ccccc12` (single isomer, unassigned) [Compound 104b], the IC50 (as a rule, the midpoint of a concentration-inhibition curve) is more than 1000 nM. For the compound `CC1(C)CC(N2C[C@H](C#N)N(c3cncc4ccccc34)C2=O)C1` (single isomer, unassigned) [Compound 126a], the 50% inhibitory concentration (IC50) was less than 20 nM. With `N#C[C@H]1CN(c2ccc(OC(F)F)cc2F)C(=O)N1c1cncc2ccccc12` (single isomer, unassigned) [Compound 83a] the figure was 20 to 200 nM; with `N#C[C@@H]1CN(c2cccc(C(F)(F)F)n2)C(=O)N1c1cncc2ccccc12` (single isomer, unassigned) [Compound 51b], more than 1000 nM; with `N#CC1CN(c2ccnc(C(F)(F)F)c2)C(=O)N1c1cncc2ccccc12` (racemic) [Compound 57, 3-(isoquinolin-4-yl)-2-oxo-1-(2-(trifluoromethyl)pyridin-4-yl)imidazolidine-4-carbonitrile], less than 20 nM.

Consider `Cc1ncccc1N1C[C@@H](C#N)N(c2cncc3ccccc23)C1=O` (single isomer, unassigned) [Compound 74b], for which the IC50 was more than 1000 nM. With `N#C[C@@H]1CN(C2CCC(F)(F)CC2)C(=O)N1c1cncc2ccccc12` (single isomer, unassigned) [Compound 138b] the figure was more than 1000 nM; with `Cc1cc(N2C[C@@H](C#N)N(c3cncc4ccccc34)C2=O)cnc1C` (single isomer, unassigned) [Compound 98b], more than 1000 nM. Under `COc1nc(C(F)(F)F)ccc1N1C[C@@H](C#N)N(c2cncc3ccccc23)C1=O` (single isomer, unassigned) [Compound 95b] stands more than 1000 nM; under `Cc1ccc(C#N)c(N2C[C@H](C#N)N(c3cncc4ccccc34)C2=O)c1` (single isomer, unassigned) [Compound 116a], less than 20 nM.

Take `Cc1c[nH]c(N2CC(C#N)N(c3cncc4ccccc34)C2=O)n1` (racemic) [Compound 118, 3-(isoquinolin-4-yl)-1-(4-methyl-1 H-imidazol-2-yl)-2-oxoimidazolidine-4-carbonitrile]: the IC50 fell in the range of 200 to 1000 nM. Under `N#C[C@H]1CN(C2CN(S(=O)(=O)C(F)(F)F)C2)C(=O)N1c1cncc2ccccc12` (single isomer, unassigned) [Compound 129a] stands 20 to 200 nM; under `N#C[C@H]1CN(C2CC3(CCC3)C2)C(=O)N1c1cncc2ccccc12` (single isomer, unassigned) [Compound 122a], less than 20 nM; under `CC(C)c1ccc(N2C[C@@H](C#N)N(c3cncc4ccccc34)C2=O)cn1` (single isomer, unassigned) [Compound 94b], more than 1000 nM.

On to `N#C[C@@H]1CN(c2ccc(C(F)(F)F)cc2)C(=O)N1c1cncc2ccccc12` (single isomer, unassigned) [Compound 99b], for which the IC50 is 200 to 1000 nM. Under `N#C[C@@H]1CN(C2CN(S(=O)(=O)C(F)(F)F)C2)C(=O)N1c1cncc2ccccc12` (single isomer, unassigned) [Compound 129b] stands more than 1000 nM; under `N#C[C@H]1CN(c2ccc(C(F)(F)F)nn2)C(=O)N1c1cncc2ccccc12` (single isomer, unassigned) [Compound 81a], less than 20 nM; under `COCCNC(=O)c1ccc2cncc(N3C(=O)N(c4cccc(Cl)c4)CC3C#N)c2c1` (stereo not drawn) [Compound 36, 4-(3-(3-chlorophenyl)-5-cyano-2-oxoimidazolidin-1-yl)-N-(2-methoxyethyl)isoquinoline-6-carboxamide], 20 to 200 nM. Under `Cc1ncc(N2C[C@H](C#N)N(c3cncc4ccccc34)C2=O)cn1` (single isomer, unassigned) [Compound 79a] stands 20 to 200 nM. Under `CS(=O)(=O)N1CC(N2C[C@H](C#N)N(c3cncc4ccccc34)C2=O)C1` (single isomer, unassigned) [Compound 130a] stands 200 to 1000 nM; under `N#C[C@@H]1CN(C23CC(F)(C2)C3)C(=O)N1c1cncc2ccccc12` (single isomer, unassigned) [Compound 139b], more than 1000 nM.
